Results reported in ChEMBL document CHEMBL4354808, “Drugs for the Treatment of Zika Virus Infection” (J Med Chem, 2020).
Residues, ends and D or L forms follow the SMILES beside them.

Key:
[1] = Cytotoxicity against human NSC by CellTiter-Glo assay; type: cell-based; conditions: NSC cells
[2] = Inhibition of Protein E in Zika virus SZ01 infected in BHK21 cells assessed as antiviral activity after 12 hrs by CCK8 assay; type: cell-based; conditions: SZ01, BHK-21, 12 h
[3] = Cytotoxicity against African green monkey Vero cells after 24 hrs by CCK8 assay; type: cell-based; conditions: chlorocebus sabaeus
[4] = Inhibition of Protein E in Zika virus FLR infected in BHK21 cells assessed as antiviral activity after 12 hrs by CCK8 assay; type: cell-based; conditions: BHK-21, 12 h
[5] = Cytotoxicity against BHK21 cells after 24 hrs by CCK8 assay; type: cell-based, Mesocricetus auratus; conditions: hamster, BHK-21 cells
[6] = Cytotoxicity against human HuH7 cells after 24 hrs by CCK8 assay; type: cell-based; conditions: Huh-7 cells
[7] = Inhibition of Protein E in Zika virus MR766 infected in BHK21 cells assessed as antiviral activity after 12 hrs by CCK8 assay; type: cell-based; conditions: MR766, BHK-21, 12 h
Zika virus [8] = test: Antiviral activity against Zika virus MR766 infected in African green monkey Vero cells by plaque assay; type: functional, organism-based
[9] = Cytotoxicity against BHK21 cells after 24 to 48 hrs by CCK8 assay; type: cell-based, Mesocricetus auratus; conditions: hamster, BHK-21 cells
Yellow fever virus = test: Antiviral activity against Yellow fever virus 17D V3 Vaccine infected in human A549 cells after 48 hrs by plaque reduction assay; type: functional, organism-based; conditions: A549, 48 h
dengue virus type 2 = test: Antiviral activity against Dengue virus 2 New Guinea C infected in human A549 cells after 48 hrs by plaque reduction assay; type: functional, organism-based; conditions: A549, 48 h
Genome polyprotein = Genome polyprotein (dengue virus type 2, UniProt P29990); test: Inhibition of Dengue virus 2 NS2B (48 to 95 residues)-NS3 (1 to 185 residues) expressed in Escherichia coli BL21 Rosetta (DE3) incubated for 30 mins followed by Abz-RRRRSAG-nTyr substrate addition
West Nile virus = test: Antiviral activity against West Nile virus NY003356V2 infected in human A549 cells after 48 hrs by plaque reduction assay; type: functional, organism-based; conditions: NY003356V2, A549, 48 h
[10] = Cytotoxicity against human A549 cells after 42 hrs by WST-8 cell proliferation assay; type: cell-based
Zika virus [11] = test: Antiviral activity against Zika virus Puerto Rico/PRVABC59 infected in human A549 cells after 48 hrs by plaque reduction assay; type: functional, organism-based; conditions: Puerto Rico/PRVABC59, A549, 48 h
[12] = Cytotoxicity against African green monkey Vero cells by MTT assay; type: cell-based; conditions: chlorocebus sabaeus
NS5 [13] = target: T1, NS5 (Zika virus, UniProt A0A143MHK7); test: Binding affinity to Zika virus Methyltransferase
NS5 [14] = target: T1, NS5; test: Inhibition of Zika virus MTase (4 to 278 residues) expressed in Escherichia coli T7 using A27 RNA as substrate in presence of [3H]SAM incubated for 30 mins by liquid scintillation counter method
NS5 [15] = target: T1, NS5; test: Inhibition of Zika virus MTase (4 to 278 residues) expressed in Escherichia coli T7 using GpppAC4 as substrate in presence of [3H]SAM incubated for 30 mins by liquid scintillation counter method
[16] = Cytotoxicity against human Neural progenitor cells; type: cell-based
[17] = Cytotoxicity against African green monkey Vero cells; type: cell-based; conditions: chlorocebus sabaeus
[18] = Cytotoxicity against African green monkey Vero cells incubated for 4 days by luminescence method; type: cell-based; conditions: chlorocebus sabaeus
Nonstructural protein 3 = Nonstructural protein 3 (Zika virus, UniProt A0A024AXB9); test: Inhibition of Zika virus NS2B (1421 to 1469 residues) - NS3 (1503 to 1688 residues) expressed in Escherichia coli BL21(DE3) cells using Dabcyl-KTSAVLQSGFRKME-Edans as substrate after 11 mins by FRET assay
[19] = Cytotoxicity against HEK293 cells; type: cell-based; conditions: human
[20] = Cytotoxicity against human SNB19 cells; type: cell-based; conditions: SNB-19 cells
[21] = Selectivity ratio of CC50 for African green monkey Vero E6 cells to EC50 for Zika virus MR766 infected in African green monkey Vero E6 cells; type: toxicity, Vero C1008; conditions: read-out: Ratio CC50/EC50
[22] = Cytotoxicity against African green monkey Vero E6 cells by the MTS method; type: cell-based, Vero C1008; conditions: chlorocebus sabaeus
Zika virus [23] = test: Antiviral activity against Zika virus Mex2-81 infected in human Jeg-3 cells assessed as reduction in virus-induced toxicity preincubated with cells for 1 hr followed by viral infection and measured 36 hrs post infection; type: functional, organism-based; conditions: Mex2-81, JEG-3
[24] = Cytotoxicity against human JEG3 cells incubated for 36 hrs by resazurin-dye based Alamar blue assay; type: cell-based; conditions: JEG-3 cells

T1 sequence (A0A143MHK7 whole entry, the tested form may be a part): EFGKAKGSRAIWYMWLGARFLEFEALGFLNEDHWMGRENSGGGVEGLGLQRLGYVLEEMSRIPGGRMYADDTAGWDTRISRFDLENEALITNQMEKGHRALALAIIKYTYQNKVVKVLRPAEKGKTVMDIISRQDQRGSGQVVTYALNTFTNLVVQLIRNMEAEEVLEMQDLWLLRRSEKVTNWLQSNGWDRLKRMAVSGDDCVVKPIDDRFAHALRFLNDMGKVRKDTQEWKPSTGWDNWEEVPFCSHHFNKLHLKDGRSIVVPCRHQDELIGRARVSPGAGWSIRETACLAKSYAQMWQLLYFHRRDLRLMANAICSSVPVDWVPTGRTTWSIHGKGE
Nonstructural protein 3, sequence (A0A024AXB9 whole entry, the tested form may be a part): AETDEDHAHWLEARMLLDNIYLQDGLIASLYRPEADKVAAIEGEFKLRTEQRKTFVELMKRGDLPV
Genome polyprotein, sequence (P29990 1346-1475 limits assumed): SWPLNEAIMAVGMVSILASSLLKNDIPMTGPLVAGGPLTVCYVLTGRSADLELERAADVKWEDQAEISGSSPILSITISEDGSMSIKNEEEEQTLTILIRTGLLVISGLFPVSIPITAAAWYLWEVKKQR
Genome polyprotein, sequence (P29990 1476-2093 limits assumed): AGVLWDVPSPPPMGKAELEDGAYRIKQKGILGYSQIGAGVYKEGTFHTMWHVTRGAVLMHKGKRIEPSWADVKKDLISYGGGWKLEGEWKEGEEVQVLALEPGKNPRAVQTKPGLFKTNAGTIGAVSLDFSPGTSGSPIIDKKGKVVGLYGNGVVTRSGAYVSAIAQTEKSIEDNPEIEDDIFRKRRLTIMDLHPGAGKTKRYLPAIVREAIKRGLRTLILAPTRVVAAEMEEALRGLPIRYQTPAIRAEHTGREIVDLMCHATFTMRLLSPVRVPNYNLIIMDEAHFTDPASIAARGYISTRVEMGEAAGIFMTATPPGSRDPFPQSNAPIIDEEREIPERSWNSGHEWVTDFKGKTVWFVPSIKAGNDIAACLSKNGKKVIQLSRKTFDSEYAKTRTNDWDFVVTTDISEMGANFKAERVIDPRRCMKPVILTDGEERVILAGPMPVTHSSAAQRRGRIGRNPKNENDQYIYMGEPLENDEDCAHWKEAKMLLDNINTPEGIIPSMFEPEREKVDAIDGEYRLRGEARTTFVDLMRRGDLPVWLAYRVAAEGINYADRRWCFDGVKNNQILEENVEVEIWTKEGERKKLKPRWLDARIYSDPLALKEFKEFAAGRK

Compound `C#C[C@@]1(O)[C@H](O)[C@@H](COP(=O)(N[C@@H](C)C(=O)OC(C)C)Oc2ccccc2)O[C@H]1n1ccc(=O)[nH]c1=O` (stereo partly drawn) has a CC50 [1] of over 50 µM.

In the case of `CC[C@H](C)[C@H](NC(=O)CNC(=O)[C@H](CCCCN)NC(=O)CNC(=O)[C@H](CC(C)C)NC(=O)[C@H](CO)NC(=O)[C@H](CC(N)=O)NC(=O)[C@H](CC(C)C)NC(=O)[C@H](C)NC(=O)CNC(=O)CNC(=O)[C@@H](NC(=O)[C@H](CO)NC(=O)CNC(=O)[C@H](Cc1ccccc1)NC(=O)[C@H](CC(=O)O)NC(=O)[C@H](Cc1c[nH]c2ccccc12)NC(=O)[C@H](C)NC(=O)[C@@H](NC(=O)[C@H](CC(=O)O)NC(=O)CNC(=O)[C@H](CC(C)C)NC(=O)[C@@H](NC(=O)[C@H](C)NC(=O)[C@@H](N)CCSC)C(C)C)[C@@H](C)O)C(C)C)C(=O)N[C@@H](Cc1cnc[nH]1)C(=O)N[C@@H](CCC(N)=O)C(=O)N[C@H](C(=O)N[C@@H](Cc1ccccc1)C(=O)NCC(=O)N[C@@H](C)C(=O)N[C@@H](C)C(=O)N[C@@H](Cc1ccccc1)C(=O)O)[C@@H](C)CC` (H-MAVLGDTAWDFGSVGGALNSLGKGIHQIFGAAF-OH), the EC50 [2] is reported as 1.75 to 13.9 µM, the CC50 at 24 h [3] is reported as over 50 µM and the EC50 [4] is reported as 1.75 to 13.9 µM. It also gave a CC50 at 24 h [5] of over 50 µM, a CC50 at 24 h [6] of over 50 µM and an EC50 [7] of 1.75 to 13.9 µM.

For `CCN(CC)CCCC(C)Nc1c2ccc(Cl)cc2nc2ccc(OC)cc12` (stereo not drawn) [QUINACRINE], the EC50 (Zika virus [8]) was 2.27 µM and the CC50 [9] was 18.6 µM.

`O=C1C=C/C(=N/Nc2ccc([N+](=O)[O-])cc2Cl)C=C1C(=O)Nc1cccc(Cl)c1` showed an EC50 (Yellow fever virus) of 0.28 µM, an EC50 (dengue virus type 2) of 0.81 µM and an IC50 (Genome polyprotein) of 1.8 µM. For the same compound, the EC50 (West Nile virus) was 1.27 µM, the CC50 at 42 h [10] was 48.8 µM and the EC50 (Zika virus [11]) was 1 µM.

For `CC(C)C[C@H]1C(=O)N2CCC[C@H]2[C@]2(O)O[C@](NC(=O)[C@@H]3C=C4c5cccc6[nH]c(Br)c(c56)C[C@H]4N(C)C3)(C(C)C)C(=O)N12` [BROMOCRIPTINE], the CC50 [12] was over 40 µM.

`Nc1ncnc2c1ncn2[C@@H]1O[C@H](CN(CC[C@H](N)C(=O)O)Cc2ccc(F)cc2)[C@@H](O)[C@H]1O` showed a Kd (NS5 [13]) of 24.3 µM.

Compound `CC(C)OC(=O)[C@H](C)NP(=O)(OC[C@H]1O[C@@H](n2ccc(=O)[nH]c2=O)[C@H](O)[C@@H]1O)Oc1ccccc1` (stereo partly drawn) has a CC50 [1] of 47 µM.

Compound `Nc1ncnc2c1ncn2[C@@H]1O[C@H](C[C@@H](N)CC[C@H](N)C(=O)O)[C@@H](O)[C@H]1O` [SINEFUNGIN] has an IC50 (NS5 [14]) of 1.62 µM and an IC50 (NS5 [15]) of 1.18 µM.

Work on `CC(C)OC(=O)[C@H](C)N[P@](=O)(OC[C@H]1O[C@@H](n2ccc(=O)[nH]c2=O)[C@](C)(F)[C@@H]1O)Oc1ccccc1` [SOFOSBUVIR] yielded a CC50 [16] of 360 to 512 µM and a CC50 [17] of 360 to 512 µM.

Compound `O=C(NC(=S)Nc1ccc(N2CCN(C(=O)c3cccs3)CC2)cc1)c1sc2ccccc2c1Cl` has a CC50 at 96 h [18] of 19.4 µM.

Compound `O=c1c(O[C@@H]2O[C@H](CO)[C@@H](O)[C@H](O)[C@H]2O)c(-c2ccc(O)cc2)oc2cc(O)cc(O)c12` [ASTRAGALIN] has an IC50 (Nonstructural protein 3) of 112 µM.

With `CC[C@H]1CN2CCc3cc(OC)c(OC)cc3[C@@H]2C[C@@H]1C[C@H]1NCCc2cc(OC)c(OC)cc21` [EMETINE] the CC50 [19] was 0.18 µM and the CC50 [20] was 0.086 µM.

`O=c1cc(-c2ccc(O)c(O)c2)oc2cc(O)cc(O)c12` [LUTEOLIN] gave an IC50 (Nonstructural protein 3) of 53 µM.

With `CCCCCOCc1c(Nc2ccc(S(N)(=O)=O)cc2)nc(N2CCOCC2)nc1C(=O)NCCOc1ccccc1` the selectivity ratio [21] was over 41 and the CC50 [22] was over 83.5 µM.

For `O=C(O[C@@H]1Cc2c(O)cc(O)cc2O[C@@H]1c1ccc(O)c(O)c1)c1cc(O)c(O)c(O)c1` [EPICATECHIN GALLATE], the IC50 (Nonstructural protein 3) was 89 µM.

`CO[C@H]1CC[C@@H](O[C@H]2C[C@H]([C@]3(C)CC[C@]4(C[C@H](O)[C@@H](C)[C@@H]([C@@H](C)/C=C(\C)C(=O)[C@H](C)C[C@H](C)C(=O)O)O4)O3)O[C@]3(O[C@@H]([C@H]4O[C@@](O)(CO)[C@H](C)C[C@@H]4C)C[C@@H]3C)[C@@H]2C)O[C@@H]1C` gave an EC50 (Zika virus [23]) of 0.97 µM and a CC50 at 36 h [24] of 6.1 µM.

`C[S+](CC[C@H](N)C(=O)[O-])C[C@H]1O[C@@H](n2cnc3c(N)ncnc32)[C@H](O)[C@@H]1O` (stereo partly drawn) [ADEMETIONINE] showed a Kd (NS5 [13]) of 2.58 µM.
